Earlier results, collected in patent publication EP0435915B1, “COMPOSITIONS FOR THE TREATMENT OF LEISHMANIASIS” (priority 1988, dated 1990).

Test system: leishmaniasis lesions
Conditions: reported by GB-A-2117237; result in words

SMILES: NC[C@@H]1O[C@H](O[C@H]2[C@@H](O)[C@H](O[C@@H]3[C@@H](O)[C@H](N)C[C@H](N)[C@H]3O[C@H]3O[C@H](CO)[C@@H](O)[C@H](O)[C@H]3N)O[C@@H]2CO)[C@H](N)[C@@H](O)[C@@H]1O [paromomycin, 0-2,6-diamino-2,6-dideoxy-β-L-idopyranosyl-(1→3)-0-β-D-ribofuranosyl-(1→5)-0-[2-amino-2-deoxy-α-D-glucopyranosyl-(1→4)]-2-deoxystreptamine]
- effect when applied topically to leishmaniasis lesions: ineffective
